Source: article PMC10955247, “In vivo screening for toxicity-modulating drug interactions identifies antagonism that protects against ototoxicity in zebrafish” (Frontiers in Pharmacology, 2024)
Where a name gives a salt, the structure may show the parent alone.

Columns and labels:
[1] = system: zebrafish lateral line hair cells; experiment: Ototoxic dose response in myo6b::gfp zebrafish larvae; format: in vivo, Danio rerio; details: myo6b::gfp fish; read-out: dose required to elicit 50% of maximal HC damage (EC50)
Procedure: For drug dose response testing, zebrafish of the wildtype genetic background AB (Table 1) and fish that were transgenic for GFP under the myo6b HC-specific promoter (Tg (myo6b:EGFP), Table 1) were raised as described previously ([Westerfield, 2007]; [Farr et al., 2020]). […]
The resulting images were analyzed for dose-response and drug interaction characteristics with the PEPITA software package, which can be found on GitHub (https://github.com/ma-lab-cgidr/PEPITA-tools). […] Manual masks were created on occasion for avoidance of fluorescent contamination, adjusted segmenting for myo6b::gfp fish to remove inner ear HC fluorescence, or exclusion of dead or damaged fish. Each fish was then adjusted for autofluorescence using the fluorophore-free red channel and scored based on the sum of green fluorescence pixel values surrounding 10 of the top 15 brightest pixels in the masked image (Figures 1B–E). These scores were standardized by comparison with the median score of wells containing untreated fish and a score representing no remaining HC fluorescence, both derived for each plate. […]
To further explore the mechanism of macrolide and aminoglycoside antagonism, we fluorescently labeled the aminoglycosides neomycin and gentamicin with Texas Red-X succinimidyl ester to track HC uptake with and without macrolide treatment (Table 1). […] Drug-induced injury was quantified by loss of fluorescence in HCs. […]

[2] = system: zebrafish lateral line hair cells; experiment: Lateral line hair cell intracellular calcium imaging and cell death; format: in vivo
From the text: For calcium testing, zebrafish expressing HC-specific GCaMP targeted to the inner mitochondrial matrix were crossed with fish expressing a HC specific calcium indicator to create double-transgenic embryos (Tg (myo6b:mitoGCaMP3;myo6b:cytoRGECO), Table 1) with both green fluorescent mitochondrial calcium and red fluorescent cytosolic calcium indicators, then raised as described previously ([McQuate et al., 2023]). Zebrafish embryos were collected from 2-h spawning periods and raised in Petri dishes in embryo medium (EM: 14.97 mM NaCl, 500 μM KCl, 42 µM Na2HPO4, 150 µM KH2PO4, 1 mM CaCl2 dehydrate, 1 mM MgSO4, 0.714 mM NaHCO3, pH 7.2) at a density of 60 larvae per […] dish, in a dark 28.5°C incubator until 5 dpf. Larvae were screened for indicator expression at 4 dpf.
Calcium imaging was performed using an inverted Marianas spinning disk confocal system (Intelligent Imaging Innovations, 3i) with an Evolve 10 MHz EMCCD camera (Photometrics) and a Zeiss C-Apochromat 63x/1.2 numerical aperture water objective. Larvae were 5-6 dpf at the time of imaging. Larvae were first anesthetized in embryo media containing 800 µM tricaine, then stabilized on their sides under a harp, so that posterior neuromasts were exposed to the surrounding media. Imaging was performed at ambient temperature, approximately 25°C. GCaMP fluorescence was acquired with a 488 nm laser and 535/30 emission filter, with an exposure time of 100 ms, and RGECO fluorescence was acquired with a 561 nm laser and 617/73 emission filter and exposure time of 200 ms. Images were taken every 2 minutes as z-stacks through neuromasts in 2 µm steps. Neomycin and azithromycin were dissolved as a 4X stock in EM (described in Section 2.1: Zebrafish Husbandry), then added to the bath to achieve final working concentration after a 10-min baseline. Imaging of neuromasts continued for 50 min. Images were analyzed in ImageJ. Mean fluorescence intensity was measured for ROIs of individual randomly selected HCs (2–3 HCs per NM, see example ROI in Figure 4). For each HC, values were normalized to the average of baseline using Microsoft Excel.

[3] = system: zebrafish lateral line hair cells; experiment: PEPITA quantification of ototoxicity in YO-PRO-1-stained AB zebrafish larvae; format: in vivo
Procedure: Therefore, at 5 dpf, larvae were transferred to 12-well plates (5–11 fish per well, 1 well per condition) containing the relevant compound or combination diluted with ICS water, or ICS water alone or high-dose neomycin to serve as controls. Unless otherwise noted, fish were exposed to drug (either an individual compound or a pairwise combination of compounds) for 4 h, as a balance between longer exposure times for accommodating varied kill kinetics and shorter exposure times for technical tractability. Treatments with multiple drugs involved co-administering a prepared solution consisting of both drugs with defined concentrations in ICS water.
Fluorescence microscopy was performed using a Keyence BZ-X800 microscope imaging system, which enables high-throughput semi-automated imaging of 96-well plates.
Each image was masked using automated object detection to include only the fish itself. Manual masks were created on occasion for avoidance of fluorescent contamination, adjusted segmenting for myo6b::gfp fish to remove inner ear HC fluorescence, or exclusion of dead or damaged fish. Each fish was then adjusted for autofluorescence using the fluorophore-free red channel and scored based on the sum of green fluorescence pixel values surrounding 10 of the top 15 brightest pixels in the masked image (Figures 1B–E). These scores were standardized by comparison with the median score of wells containing untreated fish and a score representing no remaining HC fluorescence, both derived for each plate.
Wells where the expected response ( Ra×Rb ) and observed response ( Rab ) were both less than 10% or greater than 90% were excluded from aggregation to reduce the effect of our choice of dose range. The remaining wells were summarized by averaging into a composite interaction score for the combination; we refer to this metric as the “windowed excess over Bliss” (wEOB).

Compound: NC[C@@H]1O[C@H](O[C@H]2[C@@H](O)[C@H](O[C@@H]3[C@@H](O)[C@H](N)C[C@H](N)[C@H]3O[C@H]3O[C@H](CN)[C@@H](O)[C@H](O)[C@H]3N)O[C@@H]2CO)[C@H](N)[C@@H](O)[C@@H]1O [Neomycin, Neomycin sulfate hydrate]
- EC50 [1]: 20 µM
- HC mitochondrial and cytoplasmic calcium response ([2]; NEO 50 µM, AZM 190 µM, mitoGCaMP3, cytoRGECO larvae): induced an increase in mitochondrial
- HCs that went on to die, of those analyzed ([2]; NEO alone 50 µM): 66%
- cells that went on to die ([2]; drug alone, calcium imaging): 14/21
- RFU (residual HC fluorescence) ([3]; AZM 0 μM, NEO 6.4 μM, 4 h): 10%
- RFU (residual HC fluorescence) ([3]; AZM 96 μM + NEO 6.4 μM, 4 h): 88%
- windowed excess over Bliss (wEOB) ([3]; AZM + NEO checkerboard, negative = antagonism): −0.36
- dose needed to elicit 75% maximal HC damage (EC75) ([3]; NEO alone, 4 h): 3.3 µM
- ototoxic interaction with AZM ([3]; co-administration with AZM): otoprotective antagonistic interactions
- shift toward antagonism in lateral line HC damage as compared to inhibition of the bacterial species on average ([3]; interaction with AZM, zebrafish wEOB vs average of E. coli, M. abscessus, S. aureus): 44 %pt.
- EC75 shift ([3]; ototoxin co-administered with azithromycin (AZM) vs administered alone): 13 fold
- EC75 shift ([3]; ototoxin co-administered with azithromycin (AZM) vs administered alone, listed as Neomycin (NEO)): 13-fold
- EC75 shift ([3]; ototoxin co-administered with erythromycin (ERY) vs administered alone, listed as NEO): 8 fold
- EC75 shift ([3]; ototoxin co-administered with erythromycin (ERY) vs administered alone, listed as Neomycin (NEO)): 8-fold
- ototoxic interaction with clarithromycin (CLM) ([3]; preliminary experiments): antagonistic interactions
- EC50 ([3]; representative experiment, HC damage dose response, read-out: EC50 (PEPITA, relative fluorescence units)): 1.4 µM
